Measured values as given in paper PMC4965013, “Open Source Drug Discovery with the Malaria Box Compound Collection for Neglected Diseases and Beyond” (PLoS Pathogens, 2016).

What was measured:
[1] = test system: P. falciparum 3D7 trophozoites; assay: Metabolomic fingerprint profiling LC-MS; format: cell-based, Plasmodium falciparum; design: UDP-D-glucose / ADP-D-glucose: unit not given here
P. falciparum = assay: EC50 listed in S2 Table Metabolomics (used to set the concentration tested); format: cell-based; conditions: Plasmodium falciparum; EC50 used for Factor_XEC50 in metabolomics; read-out: EC50_nM
[2] = metabolite level change after treatment

EC50 (P. falciparum): 0.274 µM
Compound: CC1CCN(Cc2ccc(NC(=O)c3cc4ccc5cccnc5c4[nH]3)cc2)CC1 [MMV020549]
Acetyllysine ([1]; S2 Table Metabolomics, metabolite Acetyllysine): -2.641 | N-acetyl-L-ornithine ([1]; S2 Table Metabolomics, metabolite N-acetyl-L-ornithine): -2.126 | N-carbamoyl-L-aspartate ([1]; S2 Table Metabolomics, metabolite N-carbamoyl-L-aspartate): 2.423 | NADPH ([1]; S2 Table Metabolomics, metabolite NADPH): 1.7547 | dAMP ([1]; S2 Table Metabolomics, metabolite dAMP): 0.4295 | dCMP ([1]; S2 Table Metabolomics, metabolite dCMP): 0.8562 | dTDP ([1]; S2 Table Metabolomics, metabolite dTDP): 0.3381 | dTMP ([1]; S2 Table Metabolomics, metabolite dTMP): 0.4292 | dTTP ([1]; S2 Table Metabolomics, metabolite dTTP): 0.08993 | dihydroorotate ([1]; S2 Table Metabolomics, metabolite dihydroorotate): 2.255 | orotate ([1]; S2 Table Metabolomics, metabolite orotate): 1.187 | DLH ([1]; S2 Table Metabolomics, peptide DLH): -1.428 | DLS/SDL/SID ([1]; S2 Table Metabolomics, peptide DLS/SDL/SID): -2.953 | PD ([1]; S2 Table Metabolomics, peptide PD): -0.7061 | PEE ([1]; S2 Table Metabolomics, peptide PEE): -0.9939 | PVNF ([1]; S2 Table Metabolomics, peptide PVNF): -1.512 | 3-phosphoglycerate ([1]; metabolite 3-phosphoglycerate, S2 Table Metabolomics): -0.1099 | ADP-D-glucose ([1]; metabolite ADP-D-glucose, S2 Table Metabolomics): 0.08948 | ATP ([1]; metabolite ATP, S2 Table Metabolomics): -0.07943 | CDP ([1]; metabolite CDP, S2 Table Metabolomics, change in metabolite level after compound treatment): 0.4826 | D-sedoheptulose-1/7-phosphate ([1]; metabolite D-sedoheptulose-1/7-phosphate, S2 Table Metabolomics, change in metabolite level after compound treatment): 0.04396 | FAD ([1]; metabolite FAD, S2 Table Metabolomics): -0.01225 | GMP ([1]; metabolite GMP, S2 Table Metabolomics, change in metabolite level after compound treatment): -0.01756 | NAD+ ([1]; metabolite NAD+, S2 Table Metabolomics): -0.1491 | NADP+ ([1]; metabolite NADP+, S2 Table Metabolomics): 0.1203 | Octoluse Bisphosphate ([1]; metabolite Octoluse Bisphosphate, S2 Table Metabolomics, change in metabolite level after compound treatment): -0.3788 | Pyroglutamic acid ([1]; metabolite Pyroglutamic acid, S2 Table Metabolomics): -0.1503 | UDP-D-glucose ([1]; metabolite UDP-D-glucose, S2 Table Metabolomics): -0.0815 | UDP-D-glucuronate ([1]; metabolite UDP-D-glucuronate, S2 Table Metabolomics): -0.1055 | UDP-N-acetyl-glucosamine ([1]; metabolite UDP-N-acetyl-glucosamine, S2 Table Metabolomics): -0.09535 | UDP ([1]; metabolite UDP, S2 Table Metabolomics, change in metabolite level after compound treatment): 0.6579 | UMP ([1]; metabolite UMP, S2 Table Metabolomics, change in metabolite level after compound treatment): 0.21 | UTP ([1]; metabolite UTP, S2 Table Metabolomics, change in metabolite level after compound treatment): 0.1832 | a-ketoglutarate ([1]; metabolite a-ketoglutarate, S2 Table Metabolomics): -0.128 | citrate/isocitrate ([1]; metabolite citrate/isocitrate, S2 Table Metabolomics, change in metabolite level after compound treatment): -0.1069 | cytidine ([1]; metabolite cytidine, S2 Table Metabolomics): -0.1996 | dATP ([1]; metabolite dATP, S2 Table Metabolomics): 0.1916 | dGMP/AMP ([1]; metabolite dGMP/AMP, S2 Table Metabolomics, change in metabolite level after compound treatment): 0.3048 | fumarate ([1]; metabolite fumarate, S2 Table Metabolomics, change in metabolite level after compound treatment): 0.06488 | glucose-1/6-phosphate ([1]; metabolite glucose-1/6-phosphate, S2 Table Metabolomics, change in metabolite level after compound treatment): -0.4724 | glycerate ([1]; metabolite glycerate, S2 Table Metabolomics, change in metabolite level after compound treatment): -0.06488 | guanine ([1]; metabolite guanine, S2 Table Metabolomics, change in metabolite level after compound treatment): 0.773 | guanosine ([1]; metabolite guanosine, S2 Table Metabolomics, change in metabolite level after compound treatment): 1.397 | hypoxanthine ([1]; metabolite hypoxanthine, S2 Table Metabolomics): -0.1958 | indole ([1]; metabolite indole, S2 Table Metabolomics): -0.3017 | inosine ([1]; metabolite inosine, S2 Table Metabolomics, change in metabolite level after compound treatment): -0.6136 | 2_3-Diphosphoglyceric acid [1, 2]: -0.02531 | 4-phosphopantothenate [1, 2]: 0.1058 | 6-phospho-D-gluconate [1, 2]: -0.03173 | FMN [1, 2]: 0.1472 | IMP [1, 2]: 0.1864 | Pyrophosphate [1, 2]: 0.03595 | Sedoheptoluse bisphosphate [1, 2]: 0.04232 | cyclic-AMP [1, 2]: -0.09542 | glutathione disulfide [1, 2]: -0.2786 | lactate [1, 2]: -0.1188 | myo-inositol [1, 2]: -0.1919 | nicotinate ([1]; metabolite nicotinate, S2 Table Metabolomics): 0.02078 | ornithine ([1]; metabolite ornithine, S2 Table Metabolomics): 0.04846 | phosphoenolpyruvate ([1]; metabolite phosphoenolpyruvate, S2 Table Metabolomics): -0.09349 | pyruvate ([1]; metabolite pyruvate, S2 Table Metabolomics, change in metabolite level after compound treatment): -0.1796 | ribose-phosphate ([1]; metabolite ribose-phosphate, S2 Table Metabolomics): -0.1444 | sarcosine/alanine ([1]; metabolite sarcosine/alanine, S2 Table Metabolomics, change in metabolite level after compound treatment): -0.25 | sn-glycerol-3-phosphate ([1]; metabolite sn-glycerol-3-phosphate, S2 Table Metabolomics): -0.2777 | succinate/methylmalonic acid ([1]; metabolite succinate/methylmalonic acid, S2 Table Metabolomics, change in metabolite level after compound treatment): -0.1252 | uridine ([1]; metabolite uridine, S2 Table Metabolomics, change in metabolite level after compound treatment): 0.147 | xanthosine ([1]; metabolite xanthosine, S2 Table Metabolomics, change in metabolite level after compound treatment): -0.8804
